The results in this text go back to US9278963B2, “Pyrimidine hydroxy amide compounds as histone deacetylase inhibitors” (Acetylon Pharmaceuticals, Inc., priority 2013, dated 2016).

Data set [1] concerns human CD34+ bone marrow cells. As to the kind of experiment: Cellular viability of cultured CD34+ bone marrow cells. To be noted: 1 μM, treatment for 4 days.
Another data set deals with HDAC2 (Homo sapiens (Human), UniProt Q92769). The data set can be described thus: HDAC enzyme assay, HDAC2. Format: biochemical. The method, then: (§1) Compounds for testing were diluted in DMSO to 50 fold the final concentration and a ten point three fold dilution series was made. The compounds were diluted in assay buffer (50 mM HEPES, pH 7.4, 100 mM KCl, 0.001% Tween-20, 0.05% BSA, 20 μM TCEP) to 6 fold their final concentration. The HDAC enzymes (purchased from BPS Biosciences) were diluted to 1.5 fold their final concentration in assay buffer. The tripeptide substrate and trypsin at 0.05 μM final concentration were diluted in assay buffer at 6 fold their final concentration. The final enzyme concentrations used in these assays were 3.3 ng/ml (HDAC1), 0.2 ng/ml (HDAC2), 0.08 ng/ml (HDAC3) and 2 ng/ml (HDAC6). The final substrate concentrations used were 16 μM (HDAC1), 10 μM (HDAC2), 17 μM (HDAC3) and 14 μM (HDAC6).
(§2) Five μl of compounds and 20 μl of enzyme were added to wells of a black, opaque 384 well plate in duplicate. Enzyme and compound were incubated together at room temperature for 10 minutes. Five μ1 of substrate was added to each well, the plate was shaken for 60 seconds and placed into a Victor 2 microtiter plate reader. The development of fluorescence was monitored for 60 min and the linear rate of the reaction was calculated. The IC50 was determined using Graph Pad Prism by a four parameter curve fit.

In a further data set the target is HDAC3 (Homo sapiens (Human), UniProt O15379). The data set can be described thus: HDAC enzyme assay, HDAC3. Format: biochemical. The method, then: Compounds for testing were diluted in DMSO to 50 fold the final concentration and a ten point three fold dilution series was made. The compounds were diluted in assay buffer (50 mM HEPES, pH 7.4, 100 mM KCl, 0.001% Tween-20, 0.05% BSA, 20 μM TCEP) to 6 fold their final concentration. […] The tripeptide substrate and trypsin at 0.05 μM final concentration were diluted in assay buffer at 6 fold their final concentration. The final enzyme concentrations used in these assays were 3.3 ng/ml (HDAC1), 0.2 ng/ml (HDAC2), 0.08 ng/ml (HDAC3) and 2 ng/ml (HDAC6).
as §2

Another data set addresses HDAC1 (Homo sapiens (Human), UniProt Q13547). As to the kind of experiment: HDAC enzyme assay, HDAC1. Format: biochemical. As to the method:
as §1, §2

For data set [2], the system named is BE(2)-C neuroblastoma cells. As to the kind of experiment: Neuroblastoma maturation gene expression, BE(2)-C. Format: cell-based. As to the method: (§3) The following is a quick summary of the HDAC neuroblastoma maturation experiments. Adherent cells were plated into 12- or 24-well plates at 10^6 cells/well and allowed to adhere for 2-4 hours. Compounds were dispensed in DMSO at the indicated concentrations using an automated liquid handling system (Tecan D300) and incubated for the indicated times at 37° C. with 5% CO2. Cells were harvested and RNA extracted using the Qiagen RNeasy Mini Kit according to manufacture protocols. The RNA was quantified and relative expression levels were assessed using the Applied Biosystems TaqMan RNA-to-Ct Kit according to manufacture protocols using the indicated TaqMan probes.
(§4) The protocol for the maturation experiments was as follows. The day before the experiment, the cells were fed in the flask by doubling the media. The cells were then harvested by adding non-enzymatic cell dissociation media and incubating at 37° C. for 15 minutes. The cells were transferred to a 50 ml tube and pipet to create a single-cell suspension. The cells were washed with PBS buffer. The cells were then resuspended in complete media at 5×10^5 cells per ml. Next, 2 ml of cells were transferred to 24- or 12-well plates. The treatment compounds were then dispensed into each well using the D300 liquid handler. The cells were then incubated for the indicated time at 37° C. The cells were harvested by scraping the cells and transferring to a 2 ml tube. The cells were spun to form a pellet. Next, RNA was extracted using the Qiagen RNeasy Mini kit according to manufacture protocols. The RNA concentration was recorded. The relative RNA levels were assessed using the Applied Biosystems TaqMan RNA-to-Ct kit according to manufacture protocols using the indicated Taqman probes.

The test system of data set [3] is SK-N-BE(2) neuroblastoma cells. As to the kind of experiment: Neuroblastoma cell cycle and p21, SK-N-BE(2). Format: cell-based. The following applies: 4 days. As to the method: SK-N-BE(2) neuroblastoma cells were treated with varying concentrations of either Compound X or Y, and/or ATRA (all trans retinoic acid). The percentage of the population of the cells at various stages of the cell cycle were measured after 4 days. In addition, the fold change of p21 was also calculated. […] The HDACi/ATRA combination effects were modest, with little difference compared to single agents.

Data set [4] has as its system SK-N-BE(2) or SH-SY5Y neuroblastoma cells. As to the kind of experiment: Neuroblastoma differentiation index. Format: cell-based. The following applies: for differentiation index, low-concentration ATRA: 0.25 μM ATRA, alone or with HDAC inhibitor; for differentiation index: varying concentrations, alone. As to the method: SK-N-BE(2) or SH-SY5Y neuroblastoma cells were treated with varying concentrations of either Compound X or Y, and/or ATRA (all trans retinoic acid). The differentiation index was measured.
SK-N-BE(2) or SH-SY5Y neuroblastoma cells were treated with varying concentrations of either Compound X or Y, and/or ATRA (all trans retinoic acid). The differentiation index was measured. As a control, SK-N-BE(2) or SH-SY5Y neuroblastoma cells were treated with varying concentrations of ATRA.

Data set [5] relates to SH-SY5Y neuroblastoma cells. The data set can be described thus: Neuroblastoma maturation gene expression, SH-SY5Y. Format: cell-based. To be noted: 72 hours, 1 μM. The method, then:
as §3
as §4, with “The treatment compounds were then dispensed into each well using the D300 liquid handler. The cells were then incubated for the indicated time at 37° C. The cells were harvested by scraping the cells and transferring to a 2 ml tube. The cells were spun to form a pellet. Next, RNA was extracted using the Qiagen RNeasy Mini kit according to manufacture protocols.” left out

Data set [6] has as its system SH-SY5Y neuroblastoma cells. As to the kind of experiment: Neuroblastoma cell cycle by flow cytometry, SH-SY5Y. To be noted: for percent of the cell population in G2, S, G1 and Sub G1 phase: 72 hours, 0.5, 2 and 5 μM (ATRA 1 μM); for cell cycle stages and fold change of p21: 4 days. The class given is cell-based. As to the method:
The following is a quick summary of the neuroblastoma cell cycle experiments. Adherent cells were plated into 12-well plates at 10^6 cells/well and allowed to adhere for 2-4 hours. Compounds were dispensed in DMSO at the indicated concentrations using an automated liquid handling system (Tecan D300) and incubated for the indicated times at 37° C. with 5% CO2. Cells were harvested with enzyme-free cell disassociation solution and washed with buffered saline. Cells were fixed overnight with 100% ethanol. Cell cycle was assessed by flow cytometry using the Molecular Probes FxCycle PI/RNase Staining Solution kit according to manufacture protocols.
The protocol for the cell cycle experiments was as follows. The day before the experiment, the cells were fed in the flask by doubling the media. Then, the cells were harvested by adding non-enzymatic cell dissociation media and incubating at 37° C. for 15 minutes. Next, the cells were transferred to a 50 ml tube and pipet to create a single-cell suspension. The cells were then washed with PBS buffer. Then, the cells were resuspended in complete media at 5×10^5 cells per ml. Next, 2 ml of cells were transferred to 12-well plates. Then, the treatment compounds were dispensed into each well using the D300 liquid handler. The cells were incubated for the indicated time at 37° C. Then, the cells were harvested by adding 500 μl enzyme free cell dissociation solution and incubating at 37° C. for 15 minutes. Next, the cells were spun into a pellet and then washed with PBS. Then, 500 μl 100% EtOH was added and incubated at 4° C. overnight. Then, the cells were washed 3× with PBS. The cells were then resuspended in […] FxCycle PI/RNase solution, and incubated for 2-4 hours at room temperature. Finally, the cells were assayed by flow cytometry.
SH-SY5Y neuroblastoma cells were treated with varying concentrations of either Compound X or Y, and/or ATRA (all trans retinoic acid). […] In addition, the fold change of p21 was also calculated. […] The HDACi/ATRA combination effects were modest, with little difference compared to single agents.
(In flow cytometry, cells or beads pass a laser one at a time.)

The target of the next data set is HDAC6 (Homo sapiens (Human), UniProt Q9UBN7). As to the kind of experiment: HDAC enzyme assay, HDAC6. Format: biochemical. As to the method: as §1
as §2, with “fit. The IC50 values obtained for several of the compounds of this invention are found in Table 1.” for “fit.”

Chain of HDAC1 (Q13547 whole entry): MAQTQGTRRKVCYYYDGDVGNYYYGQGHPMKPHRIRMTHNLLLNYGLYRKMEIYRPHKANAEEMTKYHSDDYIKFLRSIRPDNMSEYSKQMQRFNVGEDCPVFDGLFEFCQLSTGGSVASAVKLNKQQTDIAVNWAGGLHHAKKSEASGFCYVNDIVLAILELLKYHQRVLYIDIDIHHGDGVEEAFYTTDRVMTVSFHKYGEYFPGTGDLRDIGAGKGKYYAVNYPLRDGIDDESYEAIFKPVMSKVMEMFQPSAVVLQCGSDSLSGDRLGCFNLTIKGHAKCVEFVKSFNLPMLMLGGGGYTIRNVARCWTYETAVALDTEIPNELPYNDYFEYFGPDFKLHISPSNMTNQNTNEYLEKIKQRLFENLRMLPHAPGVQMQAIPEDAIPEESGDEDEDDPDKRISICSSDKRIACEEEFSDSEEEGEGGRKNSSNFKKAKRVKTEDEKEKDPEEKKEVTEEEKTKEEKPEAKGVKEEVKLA
Chain of HDAC3 (O15379 whole entry): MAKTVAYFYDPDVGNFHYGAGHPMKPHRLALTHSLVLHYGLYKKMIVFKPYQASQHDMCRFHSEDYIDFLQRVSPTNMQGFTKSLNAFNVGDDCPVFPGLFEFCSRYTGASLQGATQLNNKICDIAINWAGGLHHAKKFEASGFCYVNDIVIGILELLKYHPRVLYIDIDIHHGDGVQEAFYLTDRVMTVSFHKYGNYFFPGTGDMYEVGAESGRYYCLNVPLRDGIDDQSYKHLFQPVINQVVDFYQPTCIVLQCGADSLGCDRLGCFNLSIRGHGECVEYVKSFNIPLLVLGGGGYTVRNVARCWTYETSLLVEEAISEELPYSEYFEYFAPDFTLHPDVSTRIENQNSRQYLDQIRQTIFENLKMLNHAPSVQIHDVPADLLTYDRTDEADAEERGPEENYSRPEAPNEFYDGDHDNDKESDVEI
Chain of HDAC3 (Q9Y618 395-489 partner): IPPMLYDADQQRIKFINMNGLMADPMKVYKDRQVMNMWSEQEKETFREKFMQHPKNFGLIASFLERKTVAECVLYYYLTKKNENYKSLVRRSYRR
Chain of HDAC2 (Q92769 whole entry): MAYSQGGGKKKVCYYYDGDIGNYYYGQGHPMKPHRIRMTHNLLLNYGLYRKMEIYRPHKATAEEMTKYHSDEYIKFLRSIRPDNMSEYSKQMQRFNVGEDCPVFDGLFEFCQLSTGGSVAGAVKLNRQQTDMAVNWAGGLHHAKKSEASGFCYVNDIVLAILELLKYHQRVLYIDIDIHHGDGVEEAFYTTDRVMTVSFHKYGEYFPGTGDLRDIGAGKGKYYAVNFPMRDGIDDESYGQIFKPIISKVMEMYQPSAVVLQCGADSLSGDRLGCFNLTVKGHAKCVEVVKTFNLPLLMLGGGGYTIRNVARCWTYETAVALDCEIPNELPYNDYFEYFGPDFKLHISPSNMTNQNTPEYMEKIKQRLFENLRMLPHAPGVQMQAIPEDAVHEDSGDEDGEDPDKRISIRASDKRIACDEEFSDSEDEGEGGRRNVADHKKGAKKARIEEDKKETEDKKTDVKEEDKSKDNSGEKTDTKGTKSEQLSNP
Chain of HDAC6 (Q9UBN7 whole entry): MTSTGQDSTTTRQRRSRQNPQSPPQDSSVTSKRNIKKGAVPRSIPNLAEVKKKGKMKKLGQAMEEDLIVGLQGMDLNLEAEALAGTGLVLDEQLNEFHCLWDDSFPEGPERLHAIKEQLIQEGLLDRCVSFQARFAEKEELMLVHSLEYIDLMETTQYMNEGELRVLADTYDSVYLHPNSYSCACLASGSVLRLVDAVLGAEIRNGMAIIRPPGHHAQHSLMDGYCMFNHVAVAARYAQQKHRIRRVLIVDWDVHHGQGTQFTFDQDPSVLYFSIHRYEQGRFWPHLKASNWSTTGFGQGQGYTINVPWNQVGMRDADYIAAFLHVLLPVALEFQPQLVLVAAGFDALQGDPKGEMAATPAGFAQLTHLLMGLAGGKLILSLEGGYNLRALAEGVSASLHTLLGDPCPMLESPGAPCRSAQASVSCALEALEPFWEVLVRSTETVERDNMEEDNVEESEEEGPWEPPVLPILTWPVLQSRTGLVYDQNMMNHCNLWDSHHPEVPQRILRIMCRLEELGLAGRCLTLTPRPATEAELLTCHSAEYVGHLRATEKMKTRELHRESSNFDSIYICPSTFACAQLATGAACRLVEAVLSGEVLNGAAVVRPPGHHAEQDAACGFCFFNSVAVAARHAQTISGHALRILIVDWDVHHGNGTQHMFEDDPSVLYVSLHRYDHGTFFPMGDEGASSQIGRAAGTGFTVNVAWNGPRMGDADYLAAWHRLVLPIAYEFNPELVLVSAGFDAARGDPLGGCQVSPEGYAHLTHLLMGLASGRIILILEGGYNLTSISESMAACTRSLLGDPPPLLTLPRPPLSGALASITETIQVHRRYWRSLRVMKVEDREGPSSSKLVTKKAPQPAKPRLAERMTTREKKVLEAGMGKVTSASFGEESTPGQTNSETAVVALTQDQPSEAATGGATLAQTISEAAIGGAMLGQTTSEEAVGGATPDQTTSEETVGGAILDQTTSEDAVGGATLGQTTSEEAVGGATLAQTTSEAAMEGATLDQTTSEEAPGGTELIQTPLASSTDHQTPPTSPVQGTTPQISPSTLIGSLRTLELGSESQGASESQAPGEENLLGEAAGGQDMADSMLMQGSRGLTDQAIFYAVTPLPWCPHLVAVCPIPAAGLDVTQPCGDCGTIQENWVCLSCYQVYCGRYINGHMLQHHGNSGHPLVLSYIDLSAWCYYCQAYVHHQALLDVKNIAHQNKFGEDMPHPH

On to `O=C(CCCCCCNC(=O)c1cnc(N(c2ccccc2)c2ccccc2)nc1)NO` [Compound A, 2-(diphenylamino)-N-(7-(hydroxyamino)-7-oxoheptyl) pyrimidine-5-carboxamide, reference compound], for which the “decrease in cells viability” value in data set [1] is 20 fold.
As a reminder, the IC50 is the concentration at which inhibition is half-maximal. A lower IC50 goes with higher potency. Turning to `Nc1ccc(-c2cccs2)cc1NC(=O)c1ccc2c(c1)cc(C1CC1)n2CCN1CCOCC1` [Compound X, N-(2-amino-5-(thiophen-2-yl)phenyl)-2-cyclopropyl-1-(2-morpholinoethyl)-1H-indole-5-carboxamide], the results for the IC50 against HDAC2, against HDAC3 and at HDAC1 were 36 nM, 445 nM and 6 nM, respectively. For the same compound, the “fold change of genes associated with maturation” value in [2] (72 hours, 1 μM) is listed as “alters genes associated with maturation”; in data set [2] (4 days, 0.5, 1 and 3 μM) it was “alters genes associated with maturation”; in [5] it was “alters genes associated with maturation”. Moreover, the “cell cycle stages and fold change of p21” value in data set [3] and in data set [6] was “induced cell cycle arrest” throughout. Also, in data set [4], the “differentiation index, low-concentration ATRA” value is on record as “potentiated 0.25 μM ATRA”. Also, the differentiation index result in data set [4] is given as “induced an increase in the differentiation index”. The “percent of the cell population in G2, S, G1 and Sub G1 phase” value in [6] is reported as “induced similar cell cycle changes in all treatment groups”.
As to `CC1=C(/C=C/C(C)=C/C=C/C(C)=C/C(=O)O)C(C)(C)CCC1` [ATRA, all trans retinoic acid, reference compound], the “differentiation index, low-concentration ATRA” value in [4] was “sub-optimal”. Besides, in data set [6], the “percent of the cell population in G2, S, G1 and Sub G1 phase” value is “little impact on cell cycle”.
Consider `O=C(CCCCCCNC(=O)c1cnc(N(c2ccccc2)c2ccccc2Cl)nc1)NO` [Compound Y, 2-((2-chlorophenyl)(phenyl)amino)-N-(7-(hydroxyamino)-7-oxoheptyl)pyrimidine-5-carboxamide], for which the “cell cycle stages and fold change of p21” value in data set [3] is listed as “induced cell cycle arrest”. For the same compound, in data set [4], the “differentiation index, low-concentration ATRA” value is recorded as “potentiated 0.25 μM ATRA” and the differentiation index result is given as “induced an increase in the differentiation index”. In data set [6], the “cell cycle stages and fold change of p21” value is given as “induced cell cycle arrest”.
As to `CN(C(=O)N1CCC(Nc2ncc(C(=O)NO)cn2)(c2ccccc2)CC1)c1ccccc1` [Compound 012, N-hydroxy-2-((1-(methyl(phenyl)carbamoyl)-4-phenylpiperidin-4-yl)amino)pyrimidine-5-carboxamide], the concentration for half-maximal inhibition (IC50) is 377 nM on HDAC2, 1620 nM on HDAC3, 266 nM against HDAC1 and 2.2 nM at HDAC6.
